Source: ChEMBL document CHEMBL1201862, “PubChem BioAssay data set” (2004)
The source made the active and inactive calls.

Key:
[1] = target: Transitional endoplasmic reticulum ATPase (Homo sapiens, UniProt P55072, C522A); test: C522A mutant p97 ATPase inhibitors, dose response, counter-screen for p97 inhibitor project, biochemical, luminescence (AID 1544)
[2] = target: Transitional endoplasmic reticulum ATPase (Homo sapiens, UniProt P55072); test: p97 ATPase inhibitors, dose response, biochemical (AID 1534)
Chain of Transitional endoplasmic reticulum ATPase (Homo sapiens, UniProt P55072) (P55072 whole entry): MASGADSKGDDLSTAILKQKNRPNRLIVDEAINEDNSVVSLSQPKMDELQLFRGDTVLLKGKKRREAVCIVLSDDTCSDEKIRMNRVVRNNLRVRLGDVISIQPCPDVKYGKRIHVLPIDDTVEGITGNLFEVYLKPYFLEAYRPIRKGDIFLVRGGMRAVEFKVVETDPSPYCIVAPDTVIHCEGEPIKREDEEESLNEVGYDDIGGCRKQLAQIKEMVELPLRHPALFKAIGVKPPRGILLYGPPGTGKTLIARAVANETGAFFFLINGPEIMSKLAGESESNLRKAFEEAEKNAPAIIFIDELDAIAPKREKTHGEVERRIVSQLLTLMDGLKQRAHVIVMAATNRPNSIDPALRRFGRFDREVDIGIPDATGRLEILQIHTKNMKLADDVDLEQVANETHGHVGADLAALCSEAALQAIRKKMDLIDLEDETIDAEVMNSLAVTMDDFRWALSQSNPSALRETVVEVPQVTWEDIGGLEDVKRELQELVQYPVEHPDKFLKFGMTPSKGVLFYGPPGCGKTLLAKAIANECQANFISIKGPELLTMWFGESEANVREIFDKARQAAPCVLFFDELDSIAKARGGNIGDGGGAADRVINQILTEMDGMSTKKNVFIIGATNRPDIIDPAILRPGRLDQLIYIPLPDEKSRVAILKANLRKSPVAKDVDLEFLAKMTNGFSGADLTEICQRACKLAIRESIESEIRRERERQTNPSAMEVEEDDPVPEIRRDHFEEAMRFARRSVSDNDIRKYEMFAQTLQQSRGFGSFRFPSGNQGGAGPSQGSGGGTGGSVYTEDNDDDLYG

[3] = Luminescence Cell-Based Dose Retest to Confirm Inhibitors of Cancer Stem Cells. [Related pubchem assays (depositor defined):AID2717, AID2721]; type: functional; details: Homo sapiens
[4] = target: DNA damage-inducible transcript 3 protein (Mus musculus, UniProt P35639); type: functional, Cricetulus griseus
Chain of DNA damage-inducible transcript 3 protein (P35639 whole entry): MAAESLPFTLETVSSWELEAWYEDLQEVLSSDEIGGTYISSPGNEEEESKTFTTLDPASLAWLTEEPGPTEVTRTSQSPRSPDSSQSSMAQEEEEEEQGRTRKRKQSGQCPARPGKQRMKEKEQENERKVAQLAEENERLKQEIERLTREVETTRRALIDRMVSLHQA

X-box-binding protein 1 = X-box-binding protein 1 (Homo sapiens, UniProt P17861); type: functional, Cricetulus griseus;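 also: confirmatory dose-response counter-screen serving a CHOP assay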
Chain of X-box-binding protein 1 (P17861 whole entry): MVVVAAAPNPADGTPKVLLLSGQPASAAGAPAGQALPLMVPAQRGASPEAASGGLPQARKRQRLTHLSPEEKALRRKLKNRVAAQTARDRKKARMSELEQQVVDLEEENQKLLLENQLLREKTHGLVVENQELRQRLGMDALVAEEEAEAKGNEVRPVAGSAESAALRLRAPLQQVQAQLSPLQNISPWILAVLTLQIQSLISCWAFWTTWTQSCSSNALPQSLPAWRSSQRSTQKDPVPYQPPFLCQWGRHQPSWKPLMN

[5] = target: Luciferin 4-monooxygenase (Photinus pyralis, UniProt P08659); test: firefly luciferase enzyme inhibitors, dose response, biochemical, luminescence (AID 1891)
Chain of Luciferin 4-monooxygenase (P08659 whole entry): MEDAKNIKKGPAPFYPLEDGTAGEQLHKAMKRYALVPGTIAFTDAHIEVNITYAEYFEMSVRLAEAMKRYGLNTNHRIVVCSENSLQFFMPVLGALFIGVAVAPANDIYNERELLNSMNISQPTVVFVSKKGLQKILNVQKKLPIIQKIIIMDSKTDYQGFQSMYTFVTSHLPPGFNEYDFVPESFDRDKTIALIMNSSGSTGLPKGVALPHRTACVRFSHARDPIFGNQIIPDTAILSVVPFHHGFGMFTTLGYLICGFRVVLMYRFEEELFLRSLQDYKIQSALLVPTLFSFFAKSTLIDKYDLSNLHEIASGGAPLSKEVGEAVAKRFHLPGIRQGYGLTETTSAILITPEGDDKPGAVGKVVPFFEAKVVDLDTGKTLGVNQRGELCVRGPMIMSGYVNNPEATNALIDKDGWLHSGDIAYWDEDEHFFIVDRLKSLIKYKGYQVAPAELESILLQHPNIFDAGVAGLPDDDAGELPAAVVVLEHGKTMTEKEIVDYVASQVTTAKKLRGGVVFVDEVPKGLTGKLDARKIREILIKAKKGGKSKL

[6] = Luminescence Cell-Based Dose Confirmation HTS to Identify Inhibitors of Platelet Dense Granule Release. [Related pubchem assays: 1663 (Primary HTS), 1678 (Summary of Project)]; type: functional
Ion channel NompC = Ion channel NompC (Danio rerio, UniProt Q7T1G6); test: Dose response cell-based high-throughput screening assay for agonists of the transient receptor potential channel N1 (TRPN1). [Related pubchem assays (depositor defined):AID1424, AID1448]; type: functional
Chain of Ion channel NompC (Q7T1G6 whole entry): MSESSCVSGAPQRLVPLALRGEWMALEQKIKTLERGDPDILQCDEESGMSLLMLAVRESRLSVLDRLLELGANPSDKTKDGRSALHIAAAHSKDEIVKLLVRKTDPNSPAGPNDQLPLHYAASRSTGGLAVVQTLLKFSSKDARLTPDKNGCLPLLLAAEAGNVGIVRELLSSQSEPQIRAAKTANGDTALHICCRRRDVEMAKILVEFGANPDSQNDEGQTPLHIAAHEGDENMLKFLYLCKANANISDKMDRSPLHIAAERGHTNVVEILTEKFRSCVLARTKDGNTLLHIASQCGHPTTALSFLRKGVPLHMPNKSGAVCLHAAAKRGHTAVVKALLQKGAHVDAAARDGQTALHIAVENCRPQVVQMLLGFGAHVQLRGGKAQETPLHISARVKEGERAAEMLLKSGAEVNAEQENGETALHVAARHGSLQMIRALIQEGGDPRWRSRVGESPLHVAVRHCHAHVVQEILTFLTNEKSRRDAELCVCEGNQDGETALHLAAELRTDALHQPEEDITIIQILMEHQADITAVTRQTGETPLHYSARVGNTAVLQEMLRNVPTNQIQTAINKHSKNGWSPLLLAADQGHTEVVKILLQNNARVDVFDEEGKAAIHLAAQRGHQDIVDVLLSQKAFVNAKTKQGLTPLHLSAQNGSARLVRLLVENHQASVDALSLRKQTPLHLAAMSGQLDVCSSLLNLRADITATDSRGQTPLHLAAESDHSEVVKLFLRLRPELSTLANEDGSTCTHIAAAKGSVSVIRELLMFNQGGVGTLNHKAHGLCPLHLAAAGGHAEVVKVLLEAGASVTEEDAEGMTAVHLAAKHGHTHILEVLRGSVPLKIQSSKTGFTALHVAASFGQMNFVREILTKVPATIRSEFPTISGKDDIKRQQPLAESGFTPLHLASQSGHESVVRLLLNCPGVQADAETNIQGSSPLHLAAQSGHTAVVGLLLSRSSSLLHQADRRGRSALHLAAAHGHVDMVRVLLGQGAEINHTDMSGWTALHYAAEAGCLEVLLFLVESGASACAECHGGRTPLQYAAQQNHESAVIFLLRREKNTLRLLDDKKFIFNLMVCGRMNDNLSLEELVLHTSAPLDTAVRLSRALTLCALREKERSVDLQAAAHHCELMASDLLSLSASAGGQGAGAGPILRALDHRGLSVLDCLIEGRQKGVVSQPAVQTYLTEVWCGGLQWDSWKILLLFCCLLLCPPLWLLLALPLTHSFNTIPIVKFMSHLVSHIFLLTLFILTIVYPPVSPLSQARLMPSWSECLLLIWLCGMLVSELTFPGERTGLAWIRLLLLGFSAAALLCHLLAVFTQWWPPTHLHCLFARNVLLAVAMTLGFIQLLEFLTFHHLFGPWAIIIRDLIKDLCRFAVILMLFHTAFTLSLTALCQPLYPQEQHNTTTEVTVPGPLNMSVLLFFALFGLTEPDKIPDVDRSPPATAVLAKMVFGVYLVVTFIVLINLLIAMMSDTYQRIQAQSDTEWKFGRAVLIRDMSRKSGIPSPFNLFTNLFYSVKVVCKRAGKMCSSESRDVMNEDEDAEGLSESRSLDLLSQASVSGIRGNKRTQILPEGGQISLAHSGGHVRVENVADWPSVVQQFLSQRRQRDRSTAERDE

[7] = inhibitors of intracellular T. cruzi replication, confirmation, NIH3T3 host cells, beta-gal luminescence (AID 2044); type: functional, cell-based;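 also: intracellular parasites grown in NIH/3T3 mouse fibroblasts as host cells; luminescent beta-galactosidase reporter signal from transgenic T. cruzi replicating inside host cells; inhibitors lower the luminescence signal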
Mucolipin-3 = Mucolipin-3 (Homo sapiens, UniProt Q8TDD5); test: Fluorescence counterscreen assay for […] agonists: dose response cell-based high-throughput screening assay to identify agonists of the transient receptor potential channel ML3 (TRPML3). [Related pubchem assays: 1424, 1448 ]; type: functional
Chain of Mucolipin-3 (Q8TDD5 whole entry): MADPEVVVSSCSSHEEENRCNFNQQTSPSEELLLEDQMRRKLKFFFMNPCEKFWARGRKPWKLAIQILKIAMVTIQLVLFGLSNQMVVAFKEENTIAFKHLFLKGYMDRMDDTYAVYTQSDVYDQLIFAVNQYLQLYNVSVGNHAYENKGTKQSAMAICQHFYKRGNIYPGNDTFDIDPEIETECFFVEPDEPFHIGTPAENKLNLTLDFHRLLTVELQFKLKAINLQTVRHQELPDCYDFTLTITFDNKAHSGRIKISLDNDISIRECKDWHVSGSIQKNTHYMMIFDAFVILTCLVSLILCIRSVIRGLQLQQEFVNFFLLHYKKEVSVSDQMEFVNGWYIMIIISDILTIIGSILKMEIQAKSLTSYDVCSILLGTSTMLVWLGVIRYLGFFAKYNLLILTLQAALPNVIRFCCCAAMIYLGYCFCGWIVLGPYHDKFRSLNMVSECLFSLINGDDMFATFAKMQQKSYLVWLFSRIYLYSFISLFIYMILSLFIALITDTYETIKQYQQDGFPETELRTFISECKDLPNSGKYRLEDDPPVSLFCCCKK

[8] = cytotoxicity toward NIH3T3 fibroblasts, dose response, counter-screen, cell-based, ATP luminescence, mouse fibroblasts (AID 2010); type: functional;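 also: cells exposed to compound for about 90 hours before reading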
[9] = target: T1, Short transient receptor potential channel 4 (Mus musculus, UniProt Q9QUQ5); test: mouse TRPC4 channel activators, dose response, cell-based, HEK293 TRPC4/mu-opioid, Fluo-4 calcium (AID 434937); type: functional
T1 sequence (Q9QUQ5 whole entry): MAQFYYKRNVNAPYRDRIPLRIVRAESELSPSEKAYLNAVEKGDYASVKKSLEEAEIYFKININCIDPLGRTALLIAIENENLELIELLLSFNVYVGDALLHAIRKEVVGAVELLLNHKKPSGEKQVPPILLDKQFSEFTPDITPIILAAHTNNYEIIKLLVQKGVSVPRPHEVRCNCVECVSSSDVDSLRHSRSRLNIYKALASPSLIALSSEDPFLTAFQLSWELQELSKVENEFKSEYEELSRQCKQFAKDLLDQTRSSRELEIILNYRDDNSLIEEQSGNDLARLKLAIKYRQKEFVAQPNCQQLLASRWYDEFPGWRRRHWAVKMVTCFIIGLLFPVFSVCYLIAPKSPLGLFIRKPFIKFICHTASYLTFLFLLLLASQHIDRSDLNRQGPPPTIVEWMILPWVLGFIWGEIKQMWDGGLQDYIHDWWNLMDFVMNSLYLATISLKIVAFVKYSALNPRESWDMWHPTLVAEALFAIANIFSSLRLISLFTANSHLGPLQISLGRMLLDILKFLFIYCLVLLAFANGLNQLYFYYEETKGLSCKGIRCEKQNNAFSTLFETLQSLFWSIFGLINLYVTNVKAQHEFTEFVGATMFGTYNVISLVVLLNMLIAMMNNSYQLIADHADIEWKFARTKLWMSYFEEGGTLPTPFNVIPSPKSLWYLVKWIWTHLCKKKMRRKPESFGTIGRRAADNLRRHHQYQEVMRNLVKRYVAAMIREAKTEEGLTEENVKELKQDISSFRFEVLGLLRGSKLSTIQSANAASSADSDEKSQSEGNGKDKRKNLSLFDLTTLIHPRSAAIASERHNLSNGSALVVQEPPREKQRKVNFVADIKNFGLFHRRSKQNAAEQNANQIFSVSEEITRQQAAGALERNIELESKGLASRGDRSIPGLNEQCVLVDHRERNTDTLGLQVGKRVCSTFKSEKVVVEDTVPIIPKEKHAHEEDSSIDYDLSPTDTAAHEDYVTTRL

Vero [10] = test: cells; type: functional, cell-based; details: Chlorocebus sabaeus
Vero [11] = test: cells; type: functional; details: Chlorocebus sabaeus
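For AC50 in this document: cells exposed to compound for roughly 70 hours or longer before luminescence read.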

Chain of Transitional endoplasmic reticulum ATPase (Homo sapiens, UniProt P55072, C522A) (P55072 2-806 C522A limits assumed): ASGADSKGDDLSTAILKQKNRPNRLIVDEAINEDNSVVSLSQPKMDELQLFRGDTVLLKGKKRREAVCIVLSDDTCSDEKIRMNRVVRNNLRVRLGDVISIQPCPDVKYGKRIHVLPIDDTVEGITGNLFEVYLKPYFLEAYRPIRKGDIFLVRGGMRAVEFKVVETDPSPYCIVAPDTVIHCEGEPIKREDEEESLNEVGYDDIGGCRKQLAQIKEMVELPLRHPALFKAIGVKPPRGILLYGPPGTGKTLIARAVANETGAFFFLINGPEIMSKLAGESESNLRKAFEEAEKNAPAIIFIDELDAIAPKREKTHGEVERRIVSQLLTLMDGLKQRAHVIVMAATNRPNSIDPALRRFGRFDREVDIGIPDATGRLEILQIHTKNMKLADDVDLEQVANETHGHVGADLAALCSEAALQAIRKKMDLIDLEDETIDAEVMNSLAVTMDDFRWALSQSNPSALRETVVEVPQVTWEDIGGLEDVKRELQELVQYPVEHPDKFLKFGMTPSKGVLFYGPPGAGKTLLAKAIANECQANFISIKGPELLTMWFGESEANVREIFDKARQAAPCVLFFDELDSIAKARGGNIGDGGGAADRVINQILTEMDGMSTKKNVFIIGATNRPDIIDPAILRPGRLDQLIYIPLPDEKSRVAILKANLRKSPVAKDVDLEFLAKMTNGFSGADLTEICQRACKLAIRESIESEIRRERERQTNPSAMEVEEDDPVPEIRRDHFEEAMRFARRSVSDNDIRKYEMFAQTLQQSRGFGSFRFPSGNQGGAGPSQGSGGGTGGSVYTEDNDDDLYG

Compound	IC50 [1]	IC50 [2]	AC50 [3]	Absolute IC50 (CHOP) [4] [µM]	Absolute IC50 (XBP1) (X-box-binding protein 1) [µM]	EC50 [5]	EC50 [6]	EC50 (Ion channel NompC)	EC50 [7]	EC50 (Mucolipin-3)	EC50 [8]	EC50 [9]	IC50 (Vero [10])	CC50 (Vero [11])
Cc1cc(Nc2ccccc2)nc(-c2ccccc2O)n1	> 50 µM (not active)	> 50 µM (not active)	5.64 µM (active)	10	< 10									
CC(C)(C)c1ccc(C(=O)NC(=S)NNC(=O)c2cccs2)cc1						> 112 µM (not active)	24.5 µM (active)	0.168 µM (active)	2.15 µM (active)	0.292 µM (active)	13.5 µM (active)	1.5 µM (active)	> 12.5 µM (active)	17.4 µM (active)
